Experimental findings from patent EP2351737A1, “3-Amino-1-arylpropyl indoles and aza-substituted indoles” (F. Hoffmann-La Roche AG, priority 2005, dated 2007) are described below.

Assay [1] has as its target Human Norepinephrine Transporter (hNET) (Homo sapiens, UniProt P23975). The assay is described as follows: Human Norepinephrine Transporter (hNET) Scintillation Proximity Assay (SPA), competition with [3H]-Nisoxetine. The note with it: membranes of HEK-293 cells expressing recombinant hNET, Ki by Cheng-Prusoff; for Ki: pKi NET.
The target in assay [2] is T1, Human Serotonin Transporter (hSERT) (Homo sapiens, UniProt P31645).
T1 construct: expressed in transfected cells; membranes prepared from them
Kind of assay: Human Serotonin Transporter (hSERT) Scintillation Proximity Assay (SPA), competition with [3H]-Citalopram. Format: binding. As to conditions: membranes of HEK-293 cells expressing recombinant hSERT, Ki by Cheng-Prusoff; for Ki: read-out: pKi SERT (converted).
Text: Screening for Human Serotonin Transporter (hSERT) Antagonists Using a Scintillation Proximity Assay (SPA)
Scintillation Proximity Assay (SPA) works by bringing radioligand within close proximity to the bead's scintillant to stimulate light emission. […] Unbound radioligand produced no signal as a result of distant proximity to scintillant (lack of energy transfer).

Human Norepinephrine Transporter (hNET), sequence (P23975 whole entry): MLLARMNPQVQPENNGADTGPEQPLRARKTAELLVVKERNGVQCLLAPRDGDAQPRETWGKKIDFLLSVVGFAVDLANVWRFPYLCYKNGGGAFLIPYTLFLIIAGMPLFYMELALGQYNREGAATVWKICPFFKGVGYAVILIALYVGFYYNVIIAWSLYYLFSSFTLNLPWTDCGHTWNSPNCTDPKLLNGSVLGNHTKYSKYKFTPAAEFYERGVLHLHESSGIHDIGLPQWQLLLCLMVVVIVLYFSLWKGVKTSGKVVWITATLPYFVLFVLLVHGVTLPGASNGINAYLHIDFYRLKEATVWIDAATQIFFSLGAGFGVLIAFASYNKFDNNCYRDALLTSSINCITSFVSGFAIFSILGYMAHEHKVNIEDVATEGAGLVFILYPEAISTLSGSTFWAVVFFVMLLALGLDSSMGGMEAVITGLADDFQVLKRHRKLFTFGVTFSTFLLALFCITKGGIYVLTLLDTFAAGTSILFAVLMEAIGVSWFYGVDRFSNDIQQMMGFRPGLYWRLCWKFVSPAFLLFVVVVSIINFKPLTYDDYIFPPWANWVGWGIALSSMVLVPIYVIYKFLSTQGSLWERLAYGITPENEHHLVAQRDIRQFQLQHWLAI
T1 sequence (P31645 whole entry): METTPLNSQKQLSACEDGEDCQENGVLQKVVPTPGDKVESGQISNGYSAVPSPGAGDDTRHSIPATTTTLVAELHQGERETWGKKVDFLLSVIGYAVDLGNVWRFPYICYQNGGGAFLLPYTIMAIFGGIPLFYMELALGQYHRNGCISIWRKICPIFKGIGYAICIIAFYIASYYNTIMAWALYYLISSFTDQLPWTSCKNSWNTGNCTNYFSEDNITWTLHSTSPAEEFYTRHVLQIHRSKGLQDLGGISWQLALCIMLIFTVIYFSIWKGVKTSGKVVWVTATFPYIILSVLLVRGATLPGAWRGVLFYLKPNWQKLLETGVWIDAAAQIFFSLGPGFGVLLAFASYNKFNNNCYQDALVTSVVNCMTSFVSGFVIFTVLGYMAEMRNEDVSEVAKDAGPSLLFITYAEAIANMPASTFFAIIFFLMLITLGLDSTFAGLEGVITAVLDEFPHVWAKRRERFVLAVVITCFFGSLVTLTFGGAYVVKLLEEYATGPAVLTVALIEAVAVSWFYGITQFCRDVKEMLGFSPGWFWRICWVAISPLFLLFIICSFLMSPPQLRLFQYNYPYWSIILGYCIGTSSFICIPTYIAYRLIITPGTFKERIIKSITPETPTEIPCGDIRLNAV

On to `CNCC[C@H](c1ccccc1)c1ccc2[nH]nc(Cl)c2c1` [Compound 61, [(R)-3-(3-Chloro-1H-indazol-5-yl)-3-phenyl-propyl]-methyl-amine trifluoracetate], for which the Ki in assay [1] was 123 nM; in assay [2], 3.39 nM.
With “5-(3-Amino-1-phenyl-propyl)-1H-indole-3-carbonitrile [Compound 70]”, in assay [1], the “pKi NET” value is given as 6.39. Further, the “pKi SERT” value in assay [2] is on record as 8.74.
In the case of `CNCCC(c1ccccc1)c1cc(C(F)(F)F)c2[nH]ncc2c1` (centres unmarked) [Compound 85, Methyl-[3-phenyl-3-(7-trifluoromethyl-1H-indazol-5-yl)-propyl]-amine], the Ki in assay [1] is 15.1 nM; in assay [2] it was 21.4 nM.
As for “[3-(7-Fluoro-1H-indol-5-yl)-3-(3-methoxy-phenyl)-propyl]-methyl-amine [Compound 100]”, in assay [1], the “pKi NET” value is 7.95. Moreover, in assay [2], the “pKi SERT” value was determined as 7.79.
The matching figures for “7-Chloro-5-(3-methylamino-1-phenyl-propyl)-1H-indole-2-carboxylic acid amide [Compound 105]”: 8.35 and 7.31.
On to `CNCCC(c1ccccc1)c1cc(C)c2[nH]ncc2c1` (centres unmarked) [Compound 76, Methyl-[3-(7-methyl-1H-indazol-5-yl)-3-phenyl-propyl]-amine], for which the values for the Ki in assay [1] and in assay [2] were 25.7 nM and 17.4 nM, respectively.
For `CNCC[C@@H](c1ccccc1)c1cc(OC)c2[nH]ncc2c1` [Compound 82, [3-(7-Methoxy-1H-indazol-5-yl)-3-(S)-phenyl-propyl]-methyl-amine], in that order: 2.63 nM and 3.72 nM.
For the compound `CNCCC(c1ccccc1)c1ccc2[nH]nc(OC(C)C)c2c1` (centres unmarked) [Compound 80, [3-(3-Isopropoxy-1H-indazol-5-yl)-3-phenyl-propyl]-methyl-amine], the figures for the Ki in assay [1] and in assay [2] were 148 nM and 33.1 nM, respectively.
Regarding `CNCC[C@H](c1ccccc1)c1cc(C)c2[nH]ncc2c1` [Compound 78, Methyl-[3-(7-methyl-1H-indazol-5-yl)-3-(R)-phenyl-propyl]-amine], the Ki in assay [1] was 19.5 nM; in assay [2], 10 nM.
Turning to “[3-(1H-Indol-6-yl)-3-phenyl-propyl]-methyl-amine [Compound 41]”, the “pKi NET” value in assay [1] was found to be 7.63. For the same compound, the “pKi SERT” value in assay [2] was found to be 8.01.
Take `CNCC[C@@H](c1ccccc1)c1ccc2[nH]nc(Cl)c2c1` [Compound 60, [(S)-3-(3-Chloro-1H-indazol-5-yl)-3-phenyl-propyl]-methyl-amine]: the values for the Ki in assay [1] and in assay [2] were 40.7 nM and 8.51 nM, respectively.
For `CNCCC(c1ccccc1)c1cc(F)c2c(c1)c(C#N)cn2C` (centres unmarked) [Compound 127, 7-Fluoro-1-methyl-5-(3-methylamino-1-phenyl-propyl)-1H-indole-3-carbonitrile], in that order: 51.3 nM and 8.32 nM.
For “[3-(1H-Indol-6-yl)-3-(2-methoxy-phenyl)-propyl]-methyl-amine [Compound 34]”, the “pKi NET” value in assay [1] stood at 6.59. Also, the “pKi SERT” value in assay [2] turned out to be 7.63.
For “7-Fluoro-5-(3-methylamino-1-(S)-phenyl-propyl)-1H-indole-3-carbonitrile [Compound 104]”, in that order: 7.49 and 8.1.
On to “[3-(4-Methoxy-1H-indol-5-yl)-3-phenyl-propyl]-methyl-amine [Compound 88]”, for which the “pKi NET” value in assay [1] turned out to be 7.03. Also, in assay [2], the “pKi SERT” value is listed as 7.28.
Regarding `NCCC(c1ccc2ncccc2c1)c1ccc2[nH]ccc2c1` (centres unmarked) [Compound 120, 3-(1H-Indol-5-yl)-3-quinolin-6-yl-propylamine], the Ki in assay [1] was 141 nM; in assay [2], 3.24 nM.
As to “[3-(7-Fluoro-1H-indol-5-yl)-3-(2-methoxy-phenyl)-propyl]-methyl-amine [Compound 101]”, the “pKi NET” value in assay [1] amounted to 7.58. The “pKi SERT” value in assay [2] is given as 7.24.
In the case of `CCOc1n[nH]c2ccc(C(CCNC)c3ccccc3)cc12` (centres unmarked) [Compound 79, [3-(3-Ethoxy-1H-indazol-5-yl)-3-phenyl-propyl]-methyl-amine], the Ki in assay [1] is 132 nM; in assay [2], 26.9 nM.
Turning to “[3-(3-Chloro-1H-indazol-5-yl)-3-phenyl-propyl]-methyl-amine [Compound 57]”, the “pKi NET” value in assay [1] worked out at 7.06. Besides, the “pKi SERT” value in assay [2] is recorded as 8.14.
Turning to `CNCCC(c1ccc2[nH]ccc2c1)c1ccc2cc[nH]c2c1` (centres unmarked) [Compound 117, [3-(1H-Indol-6-yl)-3-(1H-indol-5-yl)-propyl]-methyl-amine], the Ki in assay [1] was 5.89 nM; in assay [2], 8.91 nM.
With `CNCCC(c1ccccc1)c1ccc2[nH]nc(OCC3CC3)c2c1` (centres unmarked) [Compound 81, [3-(3-Cyclopropylmethoxy-1H-indazol-5-yl)-3-phenyl-propyl]-methyl-amine], the results for the Ki in assay [1] and in assay [2] were 214 nM and 56.2 nM, respectively.
On to “[3,3-Bis-(7-fluoro-1H-indol-5-yl)-propyl]-methyl-amine [Compound 118]”, for which the “pKi NET” value in assay [1] amounted to 8.87. For the same compound, the “pKi SERT” value in assay [2] is 7.43.
In the case of `CNCCC(c1ccccc1)c1ccc2[nH]cc(C)c2c1` (centres unmarked) [Compound 15, Methyl-[3-(3-methyl-1H-indol-5-yl)-3-phenyl-propyl]-amine], the values for the Ki in assay [1] and in assay [2] were 40.7 nM and 5.25 nM, respectively.
Regarding “[3-(7-Fluoro-1H-indol-5-yl)-3-(4-methoxy-phenyl)-propyl]-methyl-amine [Compound 98]”, the “pKi NET” value in assay [1] was 8.3. Moreover, the “pKi SERT” value in assay [2] amounted to 7.88.
`CNCCC(c1ccccc1)c1cc(OC)c2[nH]ncc2c1` (centres unmarked) [Compound 75, [3-(7-Methoxy-1H-indazol-5-yl)-3-phenyl-propyl]-methyl-amine]: the results for the Ki in assay [1] and in assay [2] were 6.61 nM and 5.62 nM, respectively.
As for `CNCCC(c1ccccc1)c1cc(Cl)c2[nH]ncc2c1` (centres unmarked) [Compound 77, [3-(7-Chloro-1H-indazol-5-yl)-3-phenyl-propyl]-methyl-amine], the Ki in assay [1] was 5.5 nM; in assay [2], 9.12 nM.
For `CNCCC(c1ccccc1)c1ccc2occc2c1` (centres unmarked) [Compound 141, (3-Benzofuran-5-yl-3-phenyl-propyl)-methyl-amine], the Ki in assay [1] is 10.7 nM; in assay [2], 22.4 nM.
For the compound `CNCC[C@H](c1ccccc1)c1cc(Cl)c2[nH]ncc2c1` [Compound 84, [3-(7-Chloro-1H-indazol-5-yl)-3-(R)-phenyl-propyl]-methyl-amine], the Ki was 7.76 nM in assay [1] and 5.89 nM in assay [2].
On to `CNCC[C@H](c1ccccc1)c1cc(OC)c2[nH]ncc2c1` [Compound 83, [3-(7-Methoxy-1H-indazol-5-yl)-3-(R)-phenyl-propyl]-methyl-amine], for which the Ki is 53.7 nM in assay [1] and 11.5 nM in assay [2].
For `CNCCC(c1ccccc1)c1ccc2[nH]ccc2c1F` (centres unmarked) [Compound 97, [3-(4-Fluoro-1H-indol-5-yl)-3-phenyl-propyl]-methyl-amine], the Ki is 17 nM in assay [1] and 9.33 nM in assay [2].
The matching figures for `CNCCC(c1ccc2[nH]ccc2c1)c1nc2ccccc2s1` (centres unmarked) [Compound 140, [3-Benzothiazol-2-yl-3-(1H-indol-5-yl)-propyl]-methyl-amine]: 9.33 nM and 11.2 nM.
As for “4-Methoxy-5-(3-methylamino-1-phenyl-propyl)-1H-indole-3-carbonitrile [Compound 89]”, the “pKi NET” value in assay [1] came to 6.05. Further, the “pKi SERT” value in assay [2] came to 9.07.
“[3-(1-Methanesulfonyl-1H-indol-5-yl)-3-phenyl-propyl]-methyl-amine hydrochloride [Compound 14]”: in assay [1], the “pKi NET” value worked out at 6.57. For the same compound, the “pKi SERT” value in assay [2] came to 7.55.
For `CNCC[C@H](c1ccccc1)c1cc(F)c2[nH]cc(C#N)c2c1` [Compound 99, 7-Fluoro-5-(3-methylamino-1-(R)-phenyl-propyl)-1H-indole-3-carbonitrile], the Ki was 145 nM in assay [1] and 0.661 nM in assay [2].
Turning to “[3,3-Bis-(1H-indol-5-yl)-propyl]-methyl-amine [Compound 111]”, in assay [1], the “pKi NET” value worked out at 9.12. Further, the “pKi SERT” value in assay [2] is 7.92.
On to “[3-(7-Fluoro-1H-indol-5-yl)-3-(2-fluoro-phenyl)-propyl]-methyl-amine [Compound 95]”, for which, in assay [1], the “pKi NET” value stood at 8.32. For the same compound, the “pKi SERT” value in assay [2] stood at 7.22.
For `CNCCC(c1ccc2[nH]ccc2c1)c1ccc2nccnc2c1` (centres unmarked) [Compound 123, [3-(1H-Indol-5-yl)-3-quinoxalin-6-yl-propyl]-methyl-amine], the Ki in assay [1] is 112 nM; in assay [2], 47.9 nM.
Regarding `CNCCC(c1ccccc1)c1cc(OC)c2cc[nH]c2c1` (centres unmarked) [Compound 30], the “pKi NET” value in assay [1] came to 7.63. Besides, the “pKi SERT” value in assay [2] is on record as 9.06.
Consider “[3-(1H-Indol-5-yl)-3-quinolin-6-yl-propyl]-methyl-amine [Compound 112]”, for which the “pKi NET” value in assay [1] is given as 7.5. For the same compound, the “pKi SERT” value in assay [2] was found to be 8.67.
On to `CNCCC(c1ccccc1)c1ccc2[nH]nc(C)c2c1` (centres unmarked) [Compound 58, Methyl-[3-(3-methyl-1H-indazol-5-yl)-3-phenyl-propyl]-amine], for which the Ki in assay [1] was 191 nM; in assay [2], 42.7 nM.
For `CNCCC(c1ccc2[nH]ccc2c1)c1cccc2ccccc12` (centres unmarked) [Compound 115, [3-(1H-Indol-5-yl)-3-naphthalen-1-yl-propyl]-methyl-amine], in that order: 43.7 nM and 8.13 nM.
For `CNCCC(c1ccccc1)c1ccc2occc2c1` (centres unmarked) [Compound 142, (3-Benzofuran-5-yl-3-phenyl-propyl)-methyl-amine], in that order: 10.5 nM and 10.7 nM.
On to “3-[1-(7-Fluoro-1H-indol-5-yl)-3-methylamino-propyl]-benzonitrile [Compound 110]”, for which the “pKi NET” value in assay [1] worked out at 7.95. For the same compound, in assay [2], the “pKi SERT” value is recorded as 7.59.
